The values below are quoted from earlier work in patent US20040063658A1, “Nucleoside derivatives for treating hepatitis C virus infection” (priority 2002, published 2004).

The conditions of data set [1]: patients treated at currently recommended doses.
Another data set has as its system HCV. Particulars: treatment of HCV with interferon, long term efficacy.

`NC(=O)c1ncn([C@@H]2O[C@H](CO)[C@@H](O)[C@H]2O)n1` [Ribavirin, 1-β-D-ribofuranosyl-1H-1,2,-4-triazole-3-carboxamide]: the “patients with significant hemolysis” value in data set [1] is given as 10-20%.
For the compound interferon, the response rate entry in the data set with HCV is recorded as “about 25%”.
